Assays:
[1] = system: LPS-induced nitric oxide production in RAW264.7 cells; test: LPS-induced NO production, Griess Reagent assay; assay type: cell-based, mouse; conditions: for IC50 / inhibition at 10 µM: Mus musculus; for IC50: LPS (0.5 μg/mL) 24 h; for inhibition at 10 µM: compounds 10 μM, 1 h, then LPS (0.5 μg/mL) 24 h, read-out: Inhibition rate±SD (%) against NO production; for Inhibitory activity on LPS-induced NO secretion, in words: 10 µM
Procedure: RAW264.7 cells (7 × 10^4 cells/well) were seeded into 48-well plate and used for experiments after 24 h. […] After 24 h collect cell supernatant, NO production was measured using Griess Reagent assay (Beyotime). Griess reagent were mixed at a ratio of 1:1, and reacted at room temperature for 15 min. Measurement of absorbance at […] with enzyme reader. At least three independent experiments were performed for the determination of IC50 values, which were shown as mean ± SD. All experimental data were analysed by using GraphPad Prism software, version 8.0 (GraphPad Inc.).

[2] = Cell viability assay (MTT), RAW264.7; assay type: cell-based, mouse; conditions: mouse, RAW264.7 cells, read-out: Cytotoxicity IC50 with RAW264.7
Procedure: RAW264.7 cells (1 × 10^4 cells/well) were seeded into 96-well plate and used for experiments after 24 h. Compounds (4 µM, 20 µM and 100 µM) treated cell for 24 h. Forty microliters of MTT solution (5 mg/mL, Sigma-Aldrich) was then added and incubated for an additional 4 h. After 4 h, cell culture supernatants were removed and DMSO (150 µL) was added into per well for dissolving the resulting crystals. Shaking about 1 0 ∼ 15 min and the absorbance at 492 nm was measured by a microplate reader (MQX200, Bio-Tek, Winooski, VT). At least three independent experiments were performed for the determination of IC50 values, which were shown as mean ± SD. All experimental data were analysed by using GraphPad Prism software, version 8.0 (GraphPad Inc.).

[3] = Cell viability assay (MTT), LO2; assay type: cell-based; conditions: human, LO2 cells, read-out: Cytotoxicity IC50 with LO2

IC50 [1] [µM]	melting point [°C]	SMILES	inhibition at 10 µM [1] [%]	IC50 at 24 h [2] [µM]	IC50 at 24 h [3] [µM]	Inhibitory activity on LPS-induced NO secretion, in words [1]
9.45	–	COc1cc(O)c(C(C)=O)cc1NC(=O)Nc1ccccc1 [Compound B1, 1–(5-acetyl-4-hydroxy-2-methoxyphenyl)-3-phenylurea]	51 ± 3.25	> 100	> 100	–
> 10	132 to 134	CCN(CC)C(=O)Nc1cc(C(C)=O)c(O)cc1OC [Compound A2, 3–(5-acetyl-4-hydroxy-2-methoxyphenyl)-1,1-diethylurea]	30.2 ± 4.89	> 100	> 100	–
> 10	–	COc1cc(O)c(C(C)=O)cc1NC(=O)NC(C)(C)C [Compound A8, 1–(5-acetyl-4-hydroxy-2-methoxyphenyl)-3-(tert-butyl) urea]	12.3 ± 4.12	> 100	> 100	–
> 10	220 to 221	COc1cc(O)c(C(C)=O)cc1NC(=O)N1CCOCC1 [Compound A11, N-(5-acetyl-4-hydroxy-2-methoxyphenyl) morpholine-4-carboxamide]	29.8 ± 3.74	> 100	> 100	–
6.22	–	COc1cc(O)c(C(C)=O)cc1NC(=O)Nc1cccc(F)c1 [Compound B5, 1–(5-acetyl-4-hydroxy-2-methoxyphenyl)-3–(3-fluorophenyl) urea]	63 ± 3.87	> 100	> 100	–
> 10	172 to 174	COc1cc(O)c(C(C)=O)cc1NC(=O)N1CCSC1 [Compound A14, N-(5-acetyl-4-hydroxy-2-methoxyphenyl) thiazolidine-3-carboxamide]	24.1 ± 5.16	> 100	> 100	–
> 10	148 to 149	COc1cc(O)c(C(C)=O)cc1NC(=O)N(C(C)C)C(C)C [Compound A3, 3–(5-acetyl-4-hydroxy-2-methoxyphenyl)-1,1-diisopropylurea]	15.4 ± 3.15	> 100	> 100	–
> 10	231 to 232	COc1cc(O)c(C(C)=O)cc1NC(=O)NCc1ccco1 [Compound C7, 1–(5-acetyl-4-hydroxy-2-methoxyphenyl)-3-(furan-2-ylmethyl) urea]	26.2 ± 5.13	> 100	> 100	–
> 10	176 to 177	CONC(=O)Nc1cc(C(C)=O)c(O)cc1OC [Compound A4, 1–(5-acetyl-4-hydroxy-2-methoxyphenyl)-3-methoxyurea]	15.2 ± 4.18	> 100	> 100	–
> 10	125 to 126	CCN1CCN(C(=O)Nc2cc(C(C)=O)c(O)cc2OC)CC1 [Compound A13, N-(5-acetyl-4-hydroxy-2-methoxyphenyl)-4-ethylpiperazine-1-carboxamide]	35.1 ± 2.87	> 100	> 100	–
> 10	141 to 142	COc1cc(O)c(C(C)=O)cc1NC(=O)N1CCN(C)CC1 [Compound A10, N-(5-acetyl-4-hydroxy-2-methoxyphenyl)-4-methylpiperazine-1-carboxamide]	26 ± 5.12	> 100	> 100	–
> 10	209 to 210	COc1cc(O)c(C(C)=O)cc1NC(=O)Nc1cccc(C)c1 [Compound B2, 1–(5-acetyl-4-hydroxy-2-methoxyphenyl)-3-(m-tolyl) urea]	48.7 ± 5.49	> 100	> 100	–
8.76	218 to 219	COc1cc(O)c(C(C)=O)cc1NC(=O)Nc1ccc(C)cc1 [Compound B4, 1–(5-acetyl-4-hydroxy-2-methoxyphenyl)-3-(p-tolyl) urea]	53.9 ± 4.12	> 100	> 100	moderate inhibitory activity
> 10	211 to 212	CCNC(=O)Nc1cc(C(C)=O)c(O)cc1OC [Compound A6, 1–(5-acetyl-4-hydroxy-2-methoxyphenyl)-3-ethylurea]	16.2 ± 6.01	> 100	> 100	–
> 10	232 to 234	COc1cc(O)c(C(C)=O)cc1NC(=O)NCC(F)(F)F [Compound A5, 1–(5-acetyl-4-hydroxy-2-methoxyphenyl)-3–(2,2,2-trifluoroethyl) urea]	23.1 ± 3.25	> 100	> 100	–
> 10	176 to 177	COc1cc(O)c(C(C)=O)cc1NC(=O)N(C)C [Compound A7, 3–(5-acetyl-4-hydroxy-2-methoxyphenyl)-1,1-dimethylurea]	33.7 ± 5.02	> 100	> 100	–

More lines, now with the values behind:

SMILES	IC50 [1] [µM]	melting point [°C]	inhibition at 10 µM [1] [%]	IC50 at 24 h [2] [µM]	IC50 at 24 h [3] [µM]	Inhibitory activity on LPS-induced NO secretion, in words [1]
COc1cc(O)c(C(C)=O)cc1NC(=O)NCCc1ccc(F)cc1 [Compound D2, 1–(5-acetyl-4-hydroxy-2-methoxyphenyl)-3–(4-fluorophenethyl) urea]	> 10	224 to 225	30.2 ± 3.98	> 100	> 100	–
Cc1ccc(-c2cc(C(F)(F)F)nn2-c2ccc(S(N)(=O)=O)cc2)cc1 [Cel, Celecoxib, reference compound]	> 10	–	30.1 ± 2.33	> 100	> 100	–
COc1cc(O)c(C(C)=O)cc1NC(=O)NCCc1ccccc1 [Compound D1, 1–(5-acetyl-4-hydroxy-2-methoxyphenyl)-3-phenethylurea]	> 10	–	15.3 ± 5.12	> 100	> 100	–
COc1cc(O)c(C(C)=O)cc1NC(=O)NCc1ccccc1Cl [Compound C1, 1–(5-acetyl-4-hydroxy-2-methoxyphenyl)-3–(2-chlorobenzyl) urea]	> 10	–	33.7 ± 6.15	> 100	> 100	–
COc1cccc(NC(=O)Nc2cc(C(C)=O)c(O)cc2OC)c1 [Compound B8, 1–(5-acetyl-4-hydroxy-2-methoxyphenyl)-3–(3-methoxyphenyl) urea]	4.7	–	74.7 ± 6.15	> 100	> 100	–
COc1cc(O)c(C(C)=O)cc1NC(=O)NCc1ccccc1 [Compound C2, 1–(5-acetyl-4-hydroxy-2-methoxyphenyl)-3-benzylurea]	> 10	194 to 195	7.86 ± 2.19	> 100	> 100	–
COc1cc(O)c(C(C)=O)cc1NC(=O)Nc1ccccc1C [Compound B3, 1–(5-acetyl-4-hydroxy-2-methoxyphenyl)-3-(o-tolyl) urea]	> 10	238 to 239	47.2 ± 6.12	> 100	> 100	weak to moderate inhibitory activity
COc1ccc(CCNC(=O)Nc2cc(C(C)=O)c(O)cc2OC)cc1 [Compound D3, 1–(5-acetyl-4-hydroxy-2-methoxyphenyl)-3–(4-methoxyphenethyl) urea]	> 10	180 to 181	33.3 ± 3.18	> 100	> 100	–
COc1ccccc1CNC(=O)Nc1cc(C(C)=O)c(O)cc1OC [Compound C6, 1–(5-acetyl-4-hydroxy-2-methoxyphenyl)-3–(2-methoxybenzyl) urea]	> 10	–	8.12 ± 6.12	> 100	> 100	–
COc1ccc(CNC(=O)Nc2cc(C(C)=O)c(O)cc2OC)cc1 [Compound C5, 1–(5-acetyl-4-hydroxy-2-methoxyphenyl)-3–(4-methoxybenzyl) urea]	> 10	233 to 234	6.25 ± 5.16	> 100	> 100	–
COc1cc(O)c(C(C)=O)cc1NC(=O)NCCc1ccccc1F [Compound D4, 1–(5-acetyl-4-hydroxy-2-methoxyphenyl)-3–(2-fluorophenethyl)urea]	> 10	–	17.7 ± 2.15	> 100	> 100	–
COc1cc(O)c(C(C)=O)cc1NC(=O)Nc1ccc(C(F)(F)F)cc1 [Compound B11, 1–(5-acetyl-4-hydroxy-2-methoxyphenyl)-3–(4-(trifluoromethyl)phenyl) urea]	5.08	–	60.9 ± 4.12	> 100	> 100	–
